According to patent publication US20070248657A1, “Multi-compartment transdermal pain control device” (priority 2006, published 2007):
Read-outs that look alike come from different tables or passages of the source.

Key:
[1] = human

| Structure (SMILES) | flux through human cadaver epidermis (clinical significance) (human, pH 8.6) | flux through human cadaver epidermis (clinical significance) (pH 5.6) | flux through human cadaver epidermis (clinical significance) (pH 7.3) | Cumulative Flux ([1]; 0 h) | Cumulative Flux ([1]; 3 h) | Cumulative Flux ([1]; 6 h) | Cumulative Flux ([1]; 9 h) | Cumulative Flux ([1]; 24 h) | Cumulative Flux ([1]; 48 h) | Cumulative Flux ([1]; 72 h) | flux through human cadaver epidermis (clinical significance) (pH 8.6) |
| --- | --- | --- | --- | --- | --- | --- | --- | --- | --- | --- | --- |
| COc1ccc2c(c1)[C@]13CCCC[C@@H]1[C@H](C2)N(C)CC3 [Dextromethorphan, dextromethorphan] | higher than at a pH of 7.3 | clinically insignificant | remains clinically insignificant |  |  |  |  |  |  |  |  |
| O=C(c1ccccc1)c1ccc2n1CCC2C(=O)O (stereo not shown) [Ketorolac, ketorolac tromethamine] |  | clinically significant | decreased to a clinically insignificant level | 0 μg/cm^2 | 24 μg/cm^2 | 7 μg/cm^2 | 11 μg/cm^2 | 100 μg/cm^2 | 412 μg/cm^2 | 726 μg/cm^2 | remains clinically insignificant |
